# Assay results: ChEMBL document CHEMBL1135136, “Carbonic anhydrase inhibitors. Preparation of potent sulfonamides inhibitors incorporating bile acid tails” (Bioorg Med Chem Lett, 2002)
# Assays:
# [1] = biological target: Carbonic anhydrase 2 (Homo sapiens, UniProt P00918)
# Description: Inhibitory activity against human recombinant carbonic anhydrase II (CA2)
# [2] = biological target: T1, Carbonic anhydrase 4 (Bos taurus, UniProt Q95323)
# T1 sequence (Q95323 whole entry): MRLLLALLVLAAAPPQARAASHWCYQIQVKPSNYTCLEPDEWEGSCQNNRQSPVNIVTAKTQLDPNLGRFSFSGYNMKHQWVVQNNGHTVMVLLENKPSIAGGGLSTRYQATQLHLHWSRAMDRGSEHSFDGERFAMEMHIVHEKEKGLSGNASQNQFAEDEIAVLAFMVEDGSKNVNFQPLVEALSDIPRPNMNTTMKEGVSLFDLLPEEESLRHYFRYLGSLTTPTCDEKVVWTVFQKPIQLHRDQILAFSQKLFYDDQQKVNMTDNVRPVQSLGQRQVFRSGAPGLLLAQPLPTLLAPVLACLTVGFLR
# Description: Inhibitory activity against bovine carbonic anhydrase IV (CA4), obtained from bovine lung microsomes
# [3] = biological target: Carbonic anhydrase 1 (Homo sapiens, UniProt P00915)
# Carbonic anhydrase 1, sequence (P00915 whole entry): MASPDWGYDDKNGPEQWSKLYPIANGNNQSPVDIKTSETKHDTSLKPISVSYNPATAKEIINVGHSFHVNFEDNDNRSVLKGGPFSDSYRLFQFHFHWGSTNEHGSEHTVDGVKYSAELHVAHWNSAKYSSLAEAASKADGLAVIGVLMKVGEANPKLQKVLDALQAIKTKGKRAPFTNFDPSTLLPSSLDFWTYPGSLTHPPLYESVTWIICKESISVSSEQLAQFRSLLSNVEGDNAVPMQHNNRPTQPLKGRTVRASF
# Description: Inhibitory activity against human recombinant carbonic anhydrase I (CA1)
Structure (SMILES),Ki [1] [nM],Ki [2] [nM],Ki [3] [nM]
C[C@H](CCC(=O)NCCc1ccc(S(N)(=O)=O)cc1)[C@H]1CC[C@H]2[C@@H]3C(=O)C[C@@H]4CC(=O)CC[C@]4(C)[C@H]3CC(=O)[C@]12C,18,29,285
C[C@H](CCC(=O)NNc1ccc(S(N)(=O)=O)cc1)[C@H]1CC[C@H]2[C@@H]3[C@H](O)C[C@@H]4C[C@H](O)CC[C@]4(C)[C@H]3CC[C@]12C,295,850,27500
C[C@H](CCC(=O)OCc1ccc(S(N)(=O)=O)cc1)[C@H]1CC[C@H]2[C@@H]3C(=O)C[C@@H]4CC(=O)CC[C@]4(C)[C@H]3CC(=O)[C@]12C,71,200,450
C[C@H](CCC(=O)Nc1ccc2nc(S(N)(=O)=O)sc2c1)[C@H]1CC[C@H]2[C@@H]3CC[C@@H]4C[C@H](O)CC[C@]4(C)[C@H]3CC[C@]12C,2.8,9,48
C[C@H](CCC(=O)NCCc1ccc(S(N)(=O)=O)cc1)[C@H]1CC[C@H]2[C@@H]3[C@@H](O)C[C@@H]4C[C@H](O)CC[C@]4(C)[C@H]3CC[C@]12C,14,34,295
C[C@H](CCC(=O)Oc1ccc2nc(S(N)(=O)=O)sc2c1)[C@H]1CC[C@H]2[C@@H]3CC[C@@H]4C[C@H](O)CC[C@]4(C)[C@H]3CC[C@]12C,2,9,40
C[C@H](CCC(=O)/N=c1\sc(S(N)(=O)=O)nn1C)[C@H]1CC[C@H]2[C@@H]3[C@@H](O)C[C@@H]4C[C@H](O)CC[C@]4(C)[C@H]3CC[C@]12C,2,17,54
C[C@H](CCC(=O)Nc1ccc(S(N)(=O)=O)cc1)[C@H]1CC[C@H]2[C@@H]3CC[C@@H]4C[C@H](O)CC[C@]4(C)[C@H]3CC[C@]12C,106,280,6300
C[C@H](CCC(=O)Nc1cccc(S(N)(=O)=O)c1)[C@H]1CC[C@H]2[C@@H]3[C@H](O)C[C@@H]4C[C@H](O)CC[C@]4(C)[C@H]3C[C@H](O)[C@]12C,218,1350,23000
C[C@H](CCC(=O)OCCc1ccc(S(N)(=O)=O)cc1)[C@H]1CC[C@H]2[C@@H]3[C@H](O)C[C@@H]4C[C@H](O)CC[C@]4(C)[C@H]3CC[C@]12C,90,320,1100
C[C@H](CCC(=O)NNc1ccc(S(N)(=O)=O)cc1)[C@H]1CC[C@H]2[C@@H]3CC[C@@H]4C[C@H](O)CC[C@]4(C)[C@H]3C[C@H](O)[C@]12C,310,920,21300
C[C@H](CCC(=O)NCCc1ccc(S(N)(=O)=O)cc1)[C@H]1CC[C@H]2[C@@H]3[C@H](O)C[C@@H]4C[C@H](O)CC[C@]4(C)[C@H]3CC[C@]12C,86,235,3300
C[C@H](CCC(=O)OCc1ccc(S(N)(=O)=O)cc1)[C@H]1CC[C@H]2[C@@H]3CC[C@@H]4C[C@H](O)CC[C@]4(C)[C@H]3C[C@H](O)[C@]12C,106,350,1000
C[C@H](CCC(=O)NNc1ccc(S(N)(=O)=O)cc1)[C@H]1CC[C@H]2[C@@H]3[C@H](O)C[C@@H]4C[C@H](O)CC[C@]4(C)[C@H]3C[C@H](O)[C@]12C,315,1050,32100
C[C@H](CCC(=O)OCc1ccc(S(N)(=O)=O)cc1)[C@H]1CC[C@H]2[C@@H]3[C@H](O)C[C@@H]4C[C@H](O)CC[C@]4(C)[C@H]3CC[C@]12C,98,340,1230
C[C@H](CCC(=O)Nc1cccc(S(N)(=O)=O)c1)[C@H]1CC[C@H]2[C@@H]3CC[C@@H]4C[C@H](O)CC[C@]4(C)[C@H]3C[C@H](O)[C@]12C,230,980,12700
C[C@H](CCC(=O)Nc1cc(Cl)c(S(N)(=O)=O)cc1S(N)(=O)=O)[C@H]1CC[C@H]2[C@@H]3[C@H](O)C[C@@H]4C[C@H](O)CC[C@]4(C)[C@H]3C[C@H](O)[C@]12C,56,130,400

# More lines, in order of falling Ki [1], values ahead:
Ki [1] [nM],Ki [2] [nM],Ki [3] [nM],Structure (SMILES)
96,244,3450,C[C@H](CCC(=O)NCc1ccc(S(N)(=O)=O)cc1)[C@H]1CC[C@H]2[C@@H]3[C@H](O)C[C@@H]4C[C@H](O)CC[C@]4(C)[C@H]3CC[C@]12C
92,313,800,C[C@H](CCC(=O)OCc1ccc(S(N)(=O)=O)cc1)[C@H]1CC[C@H]2[C@@H]3CC[C@@H]4C[C@H](O)CC[C@]4(C)[C@H]3CC[C@]12C
81,310,625,C[C@H](CCC(=O)OCCc1ccc(S(N)(=O)=O)cc1)[C@H]1CC[C@H]2[C@@H]3CC[C@@H]4C[C@H](O)CC[C@]4(C)[C@H]3CC[C@]12C
78,300,885,C[C@H](CCC(=O)OCCc1ccc(S(N)(=O)=O)cc1)[C@H]1CC[C@H]2[C@@H]3CC[C@@H]4C[C@H](O)CC[C@]4(C)[C@H]3C[C@H](O)[C@]12C
77,245,1500,C[C@H](CCC(=O)NCCc1ccc(S(N)(=O)=O)cc1)[C@H]1CC[C@H]2[C@@H]3CC[C@@H]4C[C@H](O)CC[C@]4(C)[C@H]3C[C@H](O)[C@]12C
77,151,890,C[C@H](CCC(=O)Nc1ccc(S(N)(=O)=O)cc1Cl)[C@H]1CC[C@H]2[C@@H]3CC[C@@H]4C[C@H](O)CC[C@]4(C)[C@H]3C[C@H](O)[C@]12C
55,110,521,C[C@H](CCC(=O)Nc1ccc(S(N)(=O)=O)cc1I)[C@H]1CC[C@H]2[C@@H]3[C@H](O)C[C@@H]4C[C@H](O)CC[C@]4(C)[C@H]3CC[C@]12C
53,104,510,C[C@H](CCC(=O)Nc1ccc(S(N)(=O)=O)cc1I)[C@H]1CC[C@H]2[C@@H]3[C@H](O)C[C@@H]4C[C@H](O)CC[C@]4(C)[C@H]3C[C@H](O)[C@]12C
50,123,415,C[C@H](CCC(=O)OCCc1ccc(S(N)(=O)=O)cc1)[C@H]1CC[C@H]2[C@@H]3C(=O)C[C@@H]4CC(=O)CC[C@]4(C)[C@H]3CC(=O)[C@]12C
50,128,1050,C[C@H](CCC(=O)Nc1ccc(S(N)(=O)=O)cc1F)[C@H]1CC[C@H]2[C@@H]3[C@H](O)C[C@@H]4C[C@H](O)CC[C@]4(C)[C@H]3CC[C@]12C
47,54,720,C[C@H](CCC(=O)Nc1ccc(S(N)(=O)=O)cc1Cl)[C@H]1CC[C@H]2[C@@H]3CC[C@@H]4C[C@H](O)CC[C@]4(C)[C@H]3CC[C@]12C
29,36,360,C[C@H](CCC(=O)Nc1ccc(S(N)(=O)=O)cc1F)[C@H]1CC[C@H]2[C@@H]3CC[C@@H]4C[C@H](O)CC[C@]4(C)[C@H]3CC[C@]12C
17,30,190,C[C@H](CCC(=O)Nc1ccc(S(N)(=O)=O)cc1Cl)[C@H]1CC[C@H]2[C@@H]3[C@@H](O)C[C@@H]4C[C@H](O)CC[C@]4(C)[C@H]3CC[C@]12C
13,20,67,C[C@H](CCC(=O)Nc1ccc(S(N)(=O)=O)cc1I)[C@H]1CC[C@H]2[C@@H]3[C@@H](O)C[C@@H]4C[C@H](O)CC[C@]4(C)[C@H]3CC[C@]12C
10,19,61,C[C@H](CCC(=O)Nc1ccc(S(N)(=O)=O)cc1I)[C@H]1CC[C@H]2[C@@H]3C(=O)C[C@@H]4CC(=O)CC[C@]4(C)[C@H]3CC(=O)[C@]12C
9,46,71,C[C@H](CCC(=O)Nc1cc(Cl)c(S(N)(=O)=O)cc1S(N)(=O)=O)[C@H]1CC[C@H]2[C@@H]3[C@@H](O)C[C@@H]4C[C@H](O)CC[C@]4(C)[C@H]3CC[C@]12C
6.1,12,47,C[C@H](CCC(=O)Oc1ccc2nc(S(N)(=O)=O)sc2c1)[C@H]1CC[C@H]2[C@@H]3[C@H](O)C[C@@H]4C[C@H](O)CC[C@]4(C)[C@H]3CC[C@]12C
5,10,35,C[C@H](CCC(=O)Nc1ccc2nc(S(N)(=O)=O)sc2c1)[C@H]1CC[C@H]2[C@@H]3[C@H](O)C[C@@H]4C[C@H](O)CC[C@]4(C)[C@H]3C[C@H](O)[C@]12C
3,10,39,C[C@H](CCC(=O)OCCOc1ccc2nc(S(N)(=O)=O)sc2c1)[C@H]1CC[C@H]2[C@@H]3[C@H](O)C[C@@H]4C[C@H](O)CC[C@]4(C)[C@H]3C[C@H](O)[C@]12C
1.1,7,22,C[C@H](CCC(=O)NCCC(=O)Nc1nnc(S(N)(=O)=O)s1)[C@H]1CC[C@H]2[C@@H]3C(=O)C[C@@H]4CC(=O)CC[C@]4(C)[C@H]3CC(=O)[C@]12C
0.8,7,39,C[C@H](CCC(=O)Nc1ccc2nc(S(N)(=O)=O)sc2c1)[C@H]1CC[C@H]2[C@@H]3C(=O)C[C@@H]4CC(=O)CC[C@]4(C)[C@H]3CC(=O)[C@]12C
0.7,6,31,C[C@H](CCC(=O)Oc1ccc2nc(S(N)(=O)=O)sc2c1)[C@H]1CC[C@H]2[C@@H]3[C@@H](O)C[C@@H]4C[C@H](O)CC[C@]4(C)[C@H]3CC[C@]12C
